pIC50: −log10 of the molar value.
Biological target: canine TRPM8 (Canis lupus familiaris, UniProt Q1A7N1)
Test: In Vitro Canine TRPM8 Functional Assay (Ca2+ fluorescence, icilin activation)
Type: cell-based
Conditions: for inhibition at 0.5 µM: compound at 0.5 μM, read-out: % Inh @ 0.5; for inhibition at 0.5 µM / inhibition at 0.2 µM: canine TRPM8, icilin activation; for pIC50: HEK293 cells stably expressing canine TRPM8, icilin activation, eight-point dose-response, read-out: IC50; for inhibition at 0.2 µM: compound at 0.2 μM, read-out: % Inh @ 0.2
How it was run: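 Eight-point dose-response curves in quadruplicate gave EC50 or IC50 values from a Ca2+-sensitive dye assay in HEK293 cells stably carrying canine TRPM8. Icilin, dosed near its 80% maximal level, followed a 5 min compound exposure.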

Chain of canine TRPM8 (Q1A7N1 1-1104): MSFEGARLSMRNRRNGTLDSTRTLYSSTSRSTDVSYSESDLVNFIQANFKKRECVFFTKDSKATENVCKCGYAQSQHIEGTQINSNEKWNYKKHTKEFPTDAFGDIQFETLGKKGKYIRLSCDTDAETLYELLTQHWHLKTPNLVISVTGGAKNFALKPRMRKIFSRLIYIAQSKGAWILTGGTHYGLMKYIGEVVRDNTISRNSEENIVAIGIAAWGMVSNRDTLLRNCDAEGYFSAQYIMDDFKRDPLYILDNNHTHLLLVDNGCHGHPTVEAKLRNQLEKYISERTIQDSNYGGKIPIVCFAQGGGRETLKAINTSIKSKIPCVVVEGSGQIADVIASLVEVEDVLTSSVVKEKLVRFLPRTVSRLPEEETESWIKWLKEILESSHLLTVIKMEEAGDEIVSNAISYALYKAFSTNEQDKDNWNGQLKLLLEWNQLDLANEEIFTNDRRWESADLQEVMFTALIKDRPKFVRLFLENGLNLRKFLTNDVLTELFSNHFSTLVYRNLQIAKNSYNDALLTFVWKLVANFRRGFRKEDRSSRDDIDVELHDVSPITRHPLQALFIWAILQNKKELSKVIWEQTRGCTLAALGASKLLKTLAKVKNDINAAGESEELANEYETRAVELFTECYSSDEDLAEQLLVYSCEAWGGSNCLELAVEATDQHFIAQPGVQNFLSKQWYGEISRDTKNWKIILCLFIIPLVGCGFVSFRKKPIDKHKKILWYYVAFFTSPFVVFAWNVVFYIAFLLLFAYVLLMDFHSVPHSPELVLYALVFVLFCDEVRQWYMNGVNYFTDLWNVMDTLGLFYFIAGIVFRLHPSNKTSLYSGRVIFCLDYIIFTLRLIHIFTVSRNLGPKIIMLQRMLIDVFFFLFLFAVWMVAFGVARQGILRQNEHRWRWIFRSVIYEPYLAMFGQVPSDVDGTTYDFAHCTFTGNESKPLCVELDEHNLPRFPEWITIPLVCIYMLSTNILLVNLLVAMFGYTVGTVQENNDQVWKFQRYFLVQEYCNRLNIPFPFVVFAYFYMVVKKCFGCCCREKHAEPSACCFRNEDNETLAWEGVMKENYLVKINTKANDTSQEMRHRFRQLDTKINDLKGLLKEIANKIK

Row | SMILES | inhibition at 0.5 µM | pIC50 | inhibition at 0.2 µM
1 | COc1c(Cl)ccc2c(Cl)c(N(Cc3ccc(F)c(F)c3)S(=O)(=O)c3ccccc3)sc12 [Compound 144, N-(3,6-Dichloro-7-methoxy-benzo[b]thiophen-2-yl)-N-(3,4-difluoro-benzyl)-benzenesulfonamide] | 62% |  | 
2 | O=S(=O)(c1ccccc1)N(Cc1ccc(F)c(F)c1)c1cc2cccnc2s1 [Compound 147, N-(3,4-Difluoro-benzyl)-N-thieno[2,3-b]pyridin-2-yl-benzenesulfonamide] | 96% | 7.11 | 
3 | CS(=O)(=O)N(Cc1ccc(F)c(F)c1)c1sc2ccccc2c1Br [Compound 151, N-(3-Bromo-benzo[b]thiophen-2-yl)-N-(3,4-difluoro-benzyl)-methanesulfonamide] | 96% | 7.78 | 
4 | CCCCS(=O)(=O)N(Cc1ccc(F)c(F)c1)c1sc2ccccc2c1Br [Compound 154, N-(3-Bromo-benzo[b]thiophen-2-yl)-N-(3,4-difluoro-benzyl)-butane-1-sulfonamide] | 96% | 7.44 | 
5 | O=S(=O)(c1cccc(F)c1)N(Cc1ccc(F)c(F)c1)c1sc2ccccc2c1Br [Compound 155, N-(3-Bromo-benzo[b]thiophen-2-yl)-N-(3,4-difluoro-benzyl)-3-fluoro-benzenesulfonamide] | 99% | 8.40 | 
6 | O=S(=O)(c1ccc(C(F)(F)F)cc1)N(Cc1ccc(F)c(F)c1)c1sc2ccccc2c1Br [Compound 156, N-(3-Bromo-benzo[b]thiophen-2-yl)-N-(3,4-difluoro-benzyl)-4-trifluoromethyl-benzenesulfonamide] | 65% |  | 
7 | COc1ccccc1CN(c1sc2ccccc2c1Br)S(=O)(=O)c1ccccc1 [Compound 160, N-(3-Bromo-benzo[b]thiophen-2-yl)-N-(2-methoxy-benzyl)-benzenesulfonamide] | 97% | 7.45 | 
8 | COc1ccc(Br)cc1CN(c1sc2ccccc2c1Br)S(=O)(=O)c1ccccc1 [Compound 161, N-(3-Bromo-benzo[b]thiophen-2-yl)-N-(5-bromo-2-methoxy-benzyl)-benzenesulfonamide] | 95% | 7.26 | 
9 | COc1ccc(Br)c(CN(c2sc3ccccc3c2Br)S(=O)(=O)c2ccccc2)c1 [Compound 163, N-(3-Bromo-benzo[b]thiophen-2-yl)-N-(2-bromo-5-methoxy-benzyl)-benzenesulfonamide] | 92% | 7.19 | 
10 | O=S(=O)(c1ccccc1)N(Cc1cccnc1)c1sc2ccccc2c1Br [Compound 169, N-(3-Bromo-benzo[b]thiophen-2-yl)-N-(pyridin-3-ylmethyl)-benzenesulfonamide] | 98% | 7.67 | 
11 | COc1cc(CN(c2sc3ccccc3c2Br)S(=O)(=O)c2ccccc2)ccc1F [Compound 176, N-(3-Bromo-benzo[b]thiophen-2-yl)-N-(4-fluoro-3-methoxy-benzyl)-benzenesulfonamide] | 97% | 8.55 | 
12 | Cc1ccccc1CN(c1sc2ccccc2c1Br)S(=O)(=O)c1ccccc1 [Compound 178, N-(3-Bromo-benzo[b]thiophen-2-yl)-N-(2-methyl-benzyl)-benzenesulfonamide] | 96% | 7.45 | 
13 | Cc1cccc(CN(c2sc3ccccc3c2Br)S(=O)(=O)c2ccccc2)c1 [Compound 179, N-(3-Bromo-benzo[b]thiophen-2-yl)-N-(3-methyl-benzyl)-benzenesulfonamide] | 98% | 8.44 | 
14 | COc1cccc(S(=O)(=O)N(Cc2ccc(F)c(C(F)(F)F)c2)c2sc3ccccc3c2Cl)c1 [Compound 180, N-(3-Chloro-benzo[b]thiophen-2-yl)-N-(4-fluoro-3-trifluoromethyl-benzyl)-3-methoxy-benzenesulfonamide] |  | 7.37 | 96%
15 | COc1ccc(S(=O)(=O)N(Cc2ccc(F)c(C(F)(F)F)c2)c2sc3ccccc3c2Cl)cc1 [Compound 181, N-(3-Chloro-benzo[b]thiophen-2-yl)-N-(4-fluoro-3-trifluoromethyl-benzyl)-4-methoxy-benzenesulfonamide] |  | 7.08 | 95%

Next, values leading:

Row | inhibition at 0.5 µM | pIC50 | inhibition at 0.2 µM | SMILES
16 | 100% | 7.81 |  | Cn1cnc(S(=O)(=O)N(Cc2ccc(F)c(F)c2)c2sc3ccccc3c2Br)c1 [Compound 150, N-(3-Bromo-benzo[b]thiophen-2-yl)-N-(3,4-difluoro-benzyl)-1-methyl-1H-imidazole-4-sulfonamide]
17 | 95% | 8.59 |  | CCS(=O)(=O)N(Cc1ccc(F)c(F)c1)c1sc2ccccc2c1Br [Compound 152, N-(3-Bromo-benzo[b]thiophen-2-yl)-N-(3,4-difluoro-benzyl)-ethanesulfonamide]
18 | 97% | 7.73 |  | CCCS(=O)(=O)N(Cc1ccc(F)c(F)c1)c1sc2ccccc2c1Br [Compound 153, N-(3-Bromo-benzo[b]thiophen-2-yl)-N-(3,4-difluoro-benzyl)-propane-1-sulfonamide]
19 |  | 7.85 | 100% | CS(=O)(=O)N(Cc1ccc(F)c(C(F)(F)F)c1)c1sc2ccccc2c1Br [Compound 157, N-(3-Bromo-benzo[b]thiophen-2-yl)-N-(4-fluoro-3-trifluoromethyl-benzyl)-methanesulfonamide]
20 | 94% | 7.98 |  | O=S(=O)(c1ccccc1)N(Cc1ccc(Cl)cc1)c1sc2ccccc2c1Cl [Compound 158, N-(3-Chloro-benzo[b]thiophen-2-yl)-N-(4-chloro-benzyl)-benzenesulfonamide]
21 | 98% | 7.87 |  | O=S(=O)(c1ccccc1)N(Cc1ccc(Cl)cc1)c1sc2ccccc2c1Br [Compound 159, N-(3-Bromo-benzo[b]thiophen-2-yl)-N-(4-chloro-benzyl)-benzenesulfonamide]
22 | 101% | 8.35 |  | COc1cccc(CN(c2sc3ccccc3c2Br)S(=O)(=O)c2ccccc2)c1 [Compound 162, N-(3-Bromo-benzo[b]thiophen-2-yl)-N-(3-methoxy-benzyl)-benzenesulfonamide]
23 | 97% | 7.50 |  | COc1ccc(CN(c2sc3ccccc3c2Br)S(=O)(=O)c2ccccc2)cc1 [Compound 164, N-(3-Bromo-benzo[b]thiophen-2-yl)-N-(4-methoxy-benzyl)-benzenesulfonamide]
24 | 98% | 8.43 |  | COc1ccc(CN(c2sc3ccccc3c2Br)S(=O)(=O)c2ccccc2)cc1Br [Compound 165, N-(3-Bromo-benzo[b]thiophen-2-yl)-N-(3-bromo-4-methoxy-benzyl)-benzenesulfonamide]
25 | 94% | 7.94 |  | O=S(=O)(c1ccccc1)N(Cc1ccccc1F)c1sc2ccccc2c1Br [Compound 166, N-(3-Bromo-benzo[b]thiophen-2-yl)-N-(2-fluoro-benzyl)-benzenesulfonamide]
26 | 101% |  |  | O=[N+]([O-])c1cccc(CN(c2sc3ccccc3c2Br)S(=O)(=O)c2ccccc2)c1 [Compound 167, N-(3-Bromo-benzo[b]thiophen-2-yl)-N-(3-nitro-benzyl)-benzenesulfonamide]
27 | 97% | 7.35 |  | O=S(=O)(c1ccccc1)N(Cc1ccncc1)c1sc2ccccc2c1Br [Compound 170, N-(3-Bromo-benzo[b]thiophen-2-yl)-N-(pyridin-4-ylmethyl)-benzenesulfonamide]
28 | 100% | 7.71 |  | O=[N+]([O-])c1ccccc1CN(c1sc2ccccc2c1Br)S(=O)(=O)c1ccccc1 [Compound 171, N-(3-Bromo-benzo[b]thiophen-2-yl)-N-(2-nitro-benzyl)-benzenesulfonamide]
29 | 98% | 7.95 |  | O=S(=O)(c1ccccc1)N(Cc1ccccc1OC(F)(F)F)c1sc2ccccc2c1Br [Compound 172, N-(3-Bromo-benzo[b]thiophen-2-yl)-N-(2-trifluoromethoxy-benzyl)-benzenesulfonamide]
30 | 99% | 8.08 |  | O=S(=O)(c1ccccc1)N(Cc1cccc(OC(F)(F)F)c1)c1sc2ccccc2c1Br [Compound 173, N-(3-Bromo-benzo[b]thiophen-2-yl)-N-(3-trifluoromethoxy-benzyl)-benzenesulfonamide]
31 | 97% | 8.34 |  | O=S(=O)(c1ccccc1)N(Cc1ccccc1)c1sc2ccccc2c1Br [Compound 175, N-(Benzyl)-N-(3-bromo-benzo[b]thiophen-2-yl)-benzenesulfonamide]
32 | 99% | 8.00 |  | COc1ccc(S(=O)(=O)N(Cc2ccc(F)c(C(F)(F)F)c2)c2sc3ccccc3c2Br)cc1 [Compound 182, N-(3-Bromo-benzo[b]thiophen-2-yl)-N-(4-fluoro-3-trifluoromethyl-benzyl)-4-methoxy-benzenesulfonamide]
33 | 99% | 7.85 |  | CCS(=O)(=O)N(Cc1ccc(F)c(C(F)(F)F)c1)c1sc2ccccc2c1Br [Compound 183, N-(3-Bromo-benzo[b]thiophen-2-yl)-N-(4-fluoro-3-trifluoromethyl-benzyl)-ethanesulfonamide]
34 | 97% | 8.41 |  | O=S(=O)(c1cccs1)N(Cc1ccc(F)c(C(F)(F)F)c1)c1sc2ccccc2c1Br [Compound 184, N-(3-Bromo-benzo[b]thiophen-2-yl)-N-(4-fluoro-3-trifluoromethyl-benzyl)-thiophene-2-sulfonamide]
35 |  | 8.19 | 102% | COc1cccc(S(=O)(=O)N(Cc2ccc(F)c(C(F)(F)F)c2)c2sc3ccccc3c2Br)c1 [Compound 185, N-(3-Bromo-benzo[b]thiophen-2-yl)-N-(4-fluoro-3-trifluoromethyl-benzyl)-3-methoxy-benzenesulfonamide]

Reference: patent US9434711B2 (Janssen Pharmaceutica, NV, priority 2007, dated 2016)
